Measurements published in ChEMBL document CHEMBL1201862, “PubChem BioAssay data set” (2004).
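The compound was tested at five concentrations on cells cultured in 96-well plates, with a 48-hour exposure period. The concentration for 50% growth inhibition is given as GI50.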 Activity calls are given as the source filed them. Cut-off read from the data, not from the text of the source: active = GI50 up to about 1.1 µM and inactive = higher.

How the values were obtained:
Experiment in all cases: NCI-60 cell line screen, 48 h
CCRF-CEM = tested on: CCRF-CEM
SF-295 = tested on: SF-295
HOP-62 = tested on: HOP-62
UACC-62 = tested on: UACC-62
OVCAR-3 = tested on: OVCAR-3
SK-OV-3 = tested on: SK-OV-3
U-251 = tested on: U-251
NCI-H522 = tested on: NCI-H522
LOX IMVI = tested on: LOX IMVI
OVCAR-8 = tested on: OVCAR-8
A549 = tested on: A549
A498 = tested on: A498
HCT-116 = tested on: HCT-116
786-0 = tested on: 786-0
CAKI-1 = tested on: CAKI-1
HCT-15 = tested on: HCT-15
SN12C = tested on: SN12C
MDA-MB-435 = tested on: MDA-MB-435
Hs-578T = tested on: Hs-578T
SR = tested on: SR

SMILES	GI50 (CCRF-CEM)	GI50 (SF-295)	GI50 (HOP-62)	GI50 (UACC-62)	GI50 (OVCAR-3)	GI50 (SK-OV-3)	GI50 (U-251)	GI50 (NCI-H522)	GI50 (LOX IMVI)	GI50 (OVCAR-8)	GI50 (A549)	GI50 (A498)	GI50 (HCT-116)	GI50 (786-0)	GI50 (CAKI-1)	GI50 (HCT-15) [µM]	GI50 (SN12C)	GI50 (MDA-MB-435)	GI50 (Hs-578T)	GI50 (SR)
CC1(C)C(=O)C=CC2(C)C1CC(O)C1(C)C2CCC2(C)C(c3ccoc3)OC(=O)C3OC321 (stereo not given)	23.1 µM (inactive)	20 µM (inactive)	24.4 µM (inactive)	12.6 µM (inactive)	13.9 µM (inactive)	23.7 µM (inactive)	17.4 µM (inactive)	11.5 µM (inactive)	15.7 µM (inactive)	13.3 µM (inactive)	19.2 µM (inactive)	15.3 µM (inactive)	15.3 µM (inactive)	12.2 µM (inactive)	11.7 µM (inactive)	10.6	18.7 µM (inactive)	23.7 µM (inactive)		
C[C@@H]1CC(=O)C[C@@H]2CC[C@H]3[C@@H]4CC[C@H](OC(=O)c5cccc6cc7ccccc7nc56)[C@H]4CC[C@@H]3[C@H]21		27.8 µM (inactive)	22.8 µM (inactive)	13.3 µM (inactive)	15.2 µM (inactive)	25.2 µM (inactive)	7.11 µM (inactive)	5.6 µM (inactive)	15.6 µM (inactive)	16 µM (inactive)	25.1 µM (inactive)		14.1 µM (inactive)	11.4 µM (inactive)	17.4 µM (inactive)	14.2	16.6 µM (inactive)	15.8 µM (inactive)	21.6 µM (inactive)	
COc1cc(NC(C)=O)ccc1C(=O)NN1C(=O)C(Cl)C1c1ccco1 (stereo not given)	65.3 µM (inactive)			> 100 µM (inactive)	> 100 µM (inactive)			> 100 µM (inactive)	75.2 µM (inactive)	87.3 µM (inactive)	92.5 µM (inactive)	> 100 µM (inactive)	> 100 µM (inactive)	> 100 µM (inactive)	88.9 µM (inactive)	> 100	> 100 µM (inactive)	> 100 µM (inactive)		36.6 µM (inactive)
CCOP(=O)(/C=C/n1ccc(=O)[nH]c1=O)OCC	> 100 µM (inactive)	> 100 µM (inactive)	> 100 µM (inactive)	> 100 µM (inactive)	> 100 µM (inactive)	> 100 µM (inactive)	> 100 µM (inactive)	> 100 µM (inactive)	> 100 µM (inactive)	> 100 µM (inactive)	> 100 µM (inactive)	> 100 µM (inactive)	> 100 µM (inactive)	> 100 µM (inactive)	> 100 µM (inactive)	> 100	> 100 µM (inactive)	> 100 µM (inactive)		
O=C(c1cccc2ccccc12)C1S(=O)(=O)OCCOS1(=O)=O	> 100 µM (inactive)	0.0151 µM (active)	> 100 µM (inactive)		> 100 µM (inactive)		> 100 µM (inactive)			> 100 µM (inactive)	> 100 µM (inactive)		> 100 µM (inactive)	> 100 µM (inactive)	> 100 µM (inactive)	> 100	> 100 µM (inactive)	> 10 µM (inactive)		> 100 µM (inactive)
O=c1[nH]nc(Cc2ccc(Cl)cc2)n1/N=C/c1cccs1	> 100 µM (inactive)	18.9 µM (inactive)	22.1 µM (inactive)	> 100 µM (inactive)	> 100 µM (inactive)	43.9 µM (inactive)	28.4 µM (inactive)	23.7 µM (inactive)		27.5 µM (inactive)	64.9 µM (inactive)	29.1 µM (inactive)	30.8 µM (inactive)	26.6 µM (inactive)	36.5 µM (inactive)	> 100	29.2 µM (inactive)	> 100 µM (inactive)		> 100 µM (inactive)
CC1(C)CC(=O)C(=CN2C(=O)CNC2=S)C(=O)C1	> 100 µM (inactive)	> 100 µM (inactive)	> 100 µM (inactive)	> 100 µM (inactive)	> 100 µM (inactive)	> 100 µM (inactive)	> 100 µM (inactive)	> 100 µM (inactive)		> 100 µM (inactive)	> 100 µM (inactive)		> 100 µM (inactive)	> 100 µM (inactive)	> 100 µM (inactive)	> 100	> 100 µM (inactive)	> 100 µM (inactive)	> 100 µM (inactive)	
Nc1ccc(S(=O)(=O)Nc2nccs2)cc1 [SULFATHIAZOLE]	> 100 µM (inactive)	> 100 µM (inactive)	> 100 µM (inactive)	> 100 µM (inactive)	> 100 µM (inactive)	> 100 µM (inactive)	> 100 µM (inactive)	> 100 µM (inactive)	> 100 µM (inactive)	> 100 µM (inactive)	> 100 µM (inactive)	> 100 µM (inactive)	> 100 µM (inactive)	> 100 µM (inactive)		> 100	> 100 µM (inactive)	> 100 µM (inactive)		> 100 µM (inactive)
